The results in this text go back to ChEMBL document CHEMBL1201862, “PubChem BioAssay data set” (2004).

Holding throughout (experiment): DTP human tumour cell line panel, 48 h
Test [1] concerns 786-0.
The test system of test [2] is CAKI-1.
In test [3] the test system is Hs-578T.
Test [4] relates to IGROV-1.
Test [5] concerns KM12.
In test [6] the test system is M14.
The test system of test [7] is MDA-MB-435.
The subject of test [8] is MDA-N.
In test [9] the test system is MOLT-4.
For test [10], the system named is NCI-H23.
Test [11] relates to NCI-H522.
Test [12] relates to NCI/ADR-RES.
Test [13] has as its system RXF 393.
Test [14] deals with SNB-19.
The subject of test [15] is SW-620.
Test [16] relates to TK-10.
The test system of test [17] is U-251.
Test [18] deals with UO-31.
Test [19] relates to RPMI-8226.

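Protocol summary: plate cells (96-well), add compound at 5 concentrations, incubate 48 h, interpolate endpoints linearly. Here, GI50 denotes the concentration required for 50% inhibition of growth.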 Active and inactive are the calls of the source. Cut-off read from the data, not from the text of the source: active = GI50 up to about 1.1 µM and inactive = higher.

What is called GI50 is the concentration giving 50% growth inhibition. On to `CC(C)C(C/C=C1/CC(CO)(COC(=O)c2ccccc2)OC1=O)C(C)C` (stereo not drawn), for which the GI50 in test [1] was 11 µM (inactive); in [2], 14.6 µM (inactive); in test [3], 7.43 µM (inactive); in [4] it was 20.2 µM (inactive); in test [5], 15.9 µM (inactive); in test [6], 15.7 µM (inactive). Besides, the GI50 in test [7] is 26 µM (inactive); in test [8], 15.7 µM (inactive); in test [9], 11.8 µM (inactive); in [10], 18.1 µM (inactive); in [11] it was 19.9 µM (inactive); in [12], 19.2 µM (inactive). For the same molecule, the GI50 was 16.7 µM (inactive) in [13]; 16.7 µM (inactive) in test [14]; 16.4 µM (inactive) in [15]; 16.5 µM (inactive) in test [16]; 16.1 µM (inactive) in [17]; 16.3 µM (inactive) in test [18].

`CCOC(=O)Nc1cc2c(c(N)n1)N=C(c1ccc3ccccc3c1)CN2`: the concentration for 50% growth inhibition (GI50) in [1] was 0.0809 µM (active); in test [2] it was 1.25 µM (inactive); in [3], 0.0302 µM (active); in test [4], 0.644 µM (active); in test [5] it was 0.0715 µM (active); in [6] it was 0.617 µM (active). Also, the GI50 in test [7] is < 0.01 µM (active); in test [8] it was < 0.01 µM (active); in [9], 0.0226 µM (active); in [10], 0.325 µM (active); in test [11], 0.0769 µM (active); in test [12], 0.0335 µM (active). Besides, the GI50 in test [13] is 0.105 µM (active); in test [14], 0.0614 µM (active); in test [15] it was 0.0485 µM (active); in [16], 4.36 µM (inactive); in test [17], 0.0339 µM (active); in test [18] it was 0.301 µM (active).

As to `O=C(Cc1nc2ccc([N+](=O)[O-])cc2nc1O)C(=O)Nc1cc(Cl)c(Cl)cc1Cl`, the GI50 in test [1] was > 100 µM (inactive); in test [2], > 100 µM (inactive); in test [3] it was > 100 µM (inactive); in [4], > 100 µM (inactive); in [5] it was 65.6 µM (inactive); in test [6], > 100 µM (inactive). For the same molecule, the GI50 was > 100 µM (inactive) in test [7]; > 100 µM (inactive) in test [8]; 51.4 µM (inactive) in [9]; > 100 µM (inactive) in test [10]; > 100 µM (inactive) in test [11]; > 100 µM (inactive) in test [12]. For the same molecule, the GI50 in [13], in test [14], in test [15], in test [16], in [17] and in test [18] was > 100 µM (inactive) each time.

Turning to `CC1=NN(c2nc(N)nc(C(C)Sc3cc(Cl)c(C)cc3S(N)(=O)=O)n2)C(C)(C)C1` (stereo not drawn), the GI50 in test [1], in test [2], in [3], in test [4], in test [5] and in test [6] was > 10 µM (inactive) in each case. For the same molecule, the GI50 in test [8], in test [9], in [10], in test [11], in [12] and in test [19] was > 10 µM (inactive) each time. Moreover, the GI50 in [13], in test [14], in test [15], in [16], in [17] and in test [18] was > 10 µM (inactive) in each case.

Take `CSC(=NC1=NC(C(F)(F)F)(C(F)(F)F)N=C(c2ccccc2)O1)SC`: the GI50 in test [1] is 16.4 µM (inactive); in test [2] it was 4.49 µM (inactive); in test [3] it was 14.2 µM (inactive); in test [5] it was 4.91 µM (inactive); in test [6] it was 19 µM (inactive); in [7], 17.5 µM (inactive). The GI50 was 17.3 µM (inactive) in test [8]; 6.07 µM (inactive) in test [9]; 7.31 µM (inactive) in [10]; 3.1 µM (inactive) in test [11]; 5.31 µM (inactive) in test [12]; 5.77 µM (inactive) in test [13]. Moreover, the GI50 in test [14] is 5.22 µM (inactive); in [15] it was 9.38 µM (inactive); in [16] it was 7.93 µM (inactive); in [17], 4.12 µM (inactive); in test [18], 24 µM (inactive).

`CCOc1ncn(-c2ccc(NC(=S)Nc3cnccn3)cc2)n1`: the GI50 in test [1], in [3], in [4], in test [5], in test [6] and in test [7] was > 10 µM (inactive) throughout. Besides, the GI50 in test [8], in test [9], in [10], in test [11], in [12] and in [13] was > 10 µM (inactive) in each case. Further, the GI50 in test [14], in test [16], in test [17] and in test [18] was > 10 µM (inactive) throughout.

Consider `Cc1nc(N)c(N2CCN(CN)CC2)c(O)n1`, for which the GI50 in test [1], in [3], in [5], in [6], in [7] and in test [8] was > 100 µM (inactive) each time. The GI50 in test [9], in [10], in test [11], in test [12], in [19] and in [14] was > 100 µM (inactive) throughout. The GI50 in test [15], in [16], in test [17] and in test [18] was > 100 µM (inactive) throughout.

With `COC(=O)CC[N+]1=CCC(c2ccccc2)(c2ccccc2)O1`, the GI50 in test [1], in test [2], in test [3], in test [4], in test [5] and in test [6] was > 100 µM (inactive) throughout. Also, the GI50 in [7] was 41.8 µM (inactive); in test [8] it was 18.5 µM (inactive); in [9], > 100 µM (inactive); in [10], > 100 µM (inactive); in test [11], > 100 µM (inactive); in test [13], > 100 µM (inactive). Also, the GI50 in [14], in [15], in [16], in [17] and in test [18] was > 100 µM (inactive) in each case.
